Experimental data: patent US4921865A, “Aminoacylates of glycerol acetal” (Societe de Conseils de Recherches et d'Applications …, priority 1987, dated 1990)

Experiments:
[1] = system: PAF-induced thrombocytopenia; test: PAF-induced thrombocytopenia in the guinea pig; format: in vivo; conditions: for Percentage Variation (thrombocytopenia): vs control; for Percentage Decrease in leukocyte number: thrombocytopenia
Experimental: (§1) Male Guinea-pig (400-500 g) were anesthetized with urethane (1.5 g/kg: IP) prior to be tracheotomized and ventilated with a respiratory pump (UGO BASILE) (70-80 breath/minute, 1 ml air/100 g/breath) to abolish spontaneous respiration a pneumothorax was performed. The resistance to inflation was measured with a pressure transducer (UGO BASILE) against an initial pressure of 10 cm H2 O according to Konzett and Rossler. Animals were allocated into groups and were treated or not by the compounds of the invention (0.05, 0.1, 0.5, 1 and 5 mg/kg).The products were given IV 1 hour before challenge with PAF.
(§2) The animals were challenged with various doses of PAF ([…]) given intravenously, and the variations in the resistance to inflation were recorded.
(§3) Blood samples were collected prior to and 1,5 and 10 minutes following to PAF-challenge. Forty μl of blood were diluted in 10 ml isoton (Coultronics, France); erythrocytes were lysed with Zapoglobin (France) prior leukocytes were counted in a coulter counter. To determine platelet number, 40 μl of blood were diluted in 2 ml isoton and centrifuged at 100 runs per minute for 30 secondes, 100 μl of the supernatant were collected and further diluted in 10 ml isoton prior counting in a coulter counter.

[2] = system: PAF-induced bronchoconstriction; test: PAF-induced bronchoconstriction in the guinea pig; format: in vivo; conditions: for Percentage Variation (bronchoconstriction): vs control
Experimental: as §1, §2

[3] = system: PAF-induced [Ca^2+ ]i mobilization, washed rabbits platelets; test: inhibition of intracytosolic free calcium mobilization induced by PAF in washed rabbit platelets; format: cell-based; conditions: PAF 2×10^-9 M
Experimental: Blood was taken from the auricular artery of the rabbit on citric acid/sodium citrate/dextrose and anticoagulan and the washed platelets were prepared according to Ardlie et al., Brit. J. Pharmacology, 19, 7-17, 1970. They were incubated with acetylsalicylic salt (100 μM, 30 minutes) to avoid thromboxane induced aggregation. They were then loaded with the fluorescent calcium indicator dye quin 2 by incubation with quin 2 aceto-methylester (15 μM in DMSO, 20 minutes at room temperature) which penetrates the cell membrane and after hydrolysed is trapped in the platelet. Drugs were preincubated with platelets for 15 minutes simultaneously to CP/CPK mixture which destroys secreted ADP.
Fluorescent measurement was then performed (excitation λ=339 nm, emission λ=494 nm) after PAF addition to platelet suspension. The fluorescence intensity is proportional to the cytosolic free calcium level [Ca^2+ ]i which can be quantified as described by Tsien et al., J. Cell Biol., 94, 325-334, 1982.

PAF-induced leukopenia = PAF-induced leukopenia in the guinea pig; format: in vivo; conditions: for Percentage Variation (leukopenia): vs control
Experimental: as §1, §2, §3

[4] = system: polymorphonuclear leukocytes (PMNs); test: antagonism of polymorphonuclear leukocyte aggregation induced by PAF; format: cell-based, rat (Wistar); conditions: rat PMNs, PAF 10^-8
Experimental: Polymorphonuclear leukocytes (PMNs) were obtained as described by A. W. Ford-Hutchinson et al. (Br - J. Pharmacol. 76, 367-371, 1982). Cell suspensions ([…]) were prepared from peritoneal exudates obtained after a 5 ml IP injection of sodium caseinate 12% (w/v) to male Wistar rats, 300 g body weight.
After centrifugation, cells were washed with Hanks and resuspended in MEM/Hepes 30 mM medium (PM=7.4) at a concentration of 10^7 cells/ml. Cytochalasin B (5 μg/ml) was added 10 minutes before trigering aggregation to amplify the PMNs aggregation. The light transmittance through the cell suspension (400 μl) was measured under a 900 R/mn magnetic stirring, with a dual beam aggregometer (Chronolog Corp. Coultronics.)
The control cuvet is the cell suspension diluted to 20% of the cell count with MEM and the difference represents 100% transmittance. Change in transmittance, which occurs when PAF is added, was continuously recorded.
Drugs solubilized in MEM/Hepes were added (4 μl) to PMNs suspension 2 minutes before PAF addition.

[5] = pyridinium compound 0.5, 1 and 5 mg/kg IV, quinolinium compound 0.5 and 1 mg/kg IV

CCCCCCCCCCCCCCCCCC1(C)OCC(COC(=O)CCCCC[n+]2ccccc2)O1 (stereo not drawn) [Example 9, 2-heptadecyl 2-methyl 4-[6'-(N-pyridinium)hexanoyloxymethyl] 1,3 dioxolan bromide]
Percentage Variation (thrombocytopenia) ([1]; 0.05 mg/kg IV, 1 mn): -34.1% | Percentage Variation (thrombocytopenia) ([1]; 0.05 mg/kg IV, 5 mn): +1.4% | Percentage Variation (thrombocytopenia) ([1]; 0.05 mg/kg IV, 10 mn): -15.1% | Percentage Variation (thrombocytopenia) ([1]; 0.1 mg/kg IV, 1 mn): -56.1% | Percentage Variation (thrombocytopenia) ([1]; 0.1 mg/kg IV, 5 mn): -18.2% | Percentage Variation (thrombocytopenia) ([1]; 0.1 mg/kg IV, 10 mn): -0.5% | Percentage Variation (thrombocytopenia) ([1]; 0.5 mg/kg IV, 1 mn): -71.9% | Percentage Variation (thrombocytopenia) ([1]; 0.5 mg/kg IV, 5 mn): -77.4% | Percentage Variation (thrombocytopenia) ([1]; 0.5 mg/kg IV, 10 mn): -74.4% | Percentage Variation (thrombocytopenia) ([1]; 1 mg/kg IV, 1 mn): -83.2% | Percentage Variation (thrombocytopenia) ([1]; 1 mg/kg IV, 5 mn): -46.9% | Percentage Variation (thrombocytopenia) ([1]; 1 mg/kg IV, 10 mn): -50.6% | Percentage Variation (thrombocytopenia) ([1]; 5 mg/kg IV, 1 mn): -93.9% | Percentage Variation (thrombocytopenia) ([1]; 5 mg/kg IV, 5 mn): -86.8% | Percentage Variation (thrombocytopenia) ([1]; 5 mg/kg IV, 10 mn): -97.4% | inhibition of PAF-induced thrombocytopenia (in words) [1, 5]: inhibit | Percentage Decrease in leukocyte number ([1]; 0.05 mg/kg IV, 1 mn): 45.2 +/- 1.20% | Percentage Decrease in leukocyte number ([1]; 0.05 mg/kg IV, 5 mn): 43.0 +/- 4.80% | Percentage Decrease in leukocyte number ([1]; 0.05 mg/kg IV, 10 mn): 36.1 +/- 2.41% | Percentage Decrease in leukocyte number ([1]; 0.1 mg/kg IV, 1 mn): 30.1 +/- 13.72% | Percentage Decrease in leukocyte number ([1]; 0.1 mg/kg IV, 5 mn): 34.7 +/- 3.60% | Percentage Decrease in leukocyte number ([1]; 0.1 mg/kg IV, 10 mn): 42.3 +/- 4.79% | Percentage Decrease in leukocyte number ([1]; 0.5 mg/kg IV, 1 mn): 19.3 +/- 10.19% | Percentage Decrease in leukocyte number ([1]; 0.5 mg/kg IV, 5 mn): 9.6 +/- 12.15% | Percentage Decrease in leukocyte number ([1]; 0.5 mg/kg IV, 10 mn): 10.9 +/- 9.94% | Percentage Decrease in leukocyte number ([1]; 1 mg/kg IV, 1 mn): 11.5 +/- 6.21% | Percentage Decrease in leukocyte number ([1]; 1 mg/kg IV, 5 mn): 22.5 +/- 3.27% | Percentage Decrease in leukocyte number ([1]; 1 mg/kg IV, 10 mn): 21.0 +/- 3.87% | Percentage Decrease in leukocyte number ([1]; 5 mg/kg IV, 1 mn): 4.2 +/- 2.35% | Percentage Decrease in leukocyte number ([1]; 5 mg/kg IV, 5 mn): 5.6 +/- 1.84% | Percentage Decrease in leukocyte number ([1]; 5 mg/kg IV, 10 mn): 1.1 +/- 1.15% | Percentage Bronchoconstriction ([2]; 0.05 mg/kg IV): 79.0 +/- 9.27% | Percentage Variation (bronchoconstriction) ([2]; 0.05 mg/kg IV): -1.0% | Percentage Bronchoconstriction ([2]; 0.1 mg/kg IV): 43.8 +/- 14.77% | Percentage Variation (bronchoconstriction) ([2]; 0.1 mg/kg IV): -45.1% | Percentage Bronchoconstriction ([2]; 0.5 mg/kg IV): 23.6 +/- 7.15% | Percentage Variation (bronchoconstriction) ([2]; 0.5 mg/kg IV): -70.4% | Percentage Bronchoconstriction ([2]; 1 mg/kg IV): 19.1 +/- 10.51% | Percentage Variation (bronchoconstriction) ([2]; 1 mg/kg IV): -76.1% | Percentage Bronchoconstriction ([2]; 5 mg/kg IV): 3.5 +/- 1.53% | Percentage Variation (bronchoconstriction) ([2]; 5 mg/kg IV): -95.6% | inhibition of PAF-induced bronchoconstriction (in words) [2, 5]: inhibit | inhibition of PAF-induced [Ca^2+ ]i mobilization (in words) ([3]; 5×10^-7 M): totally inhibit | inhibition at 0.05 µM ([3]; Oryctolagus cuniculus, Platelet, 5×10^-8 M, read-out: inhibition of PAF effect on [Ca^2+ ]i): 44% | Percentage Decrease of leukocyte number (PAF-induced leukopenia; 0.05 mg/kg IV, 1 mn): 45.3 +/- 5.70% | Percentage Variation (leukopenia) (PAF-induced leukopenia; 0.05 mg/kg IV, 1 mn): +11.0% | Percentage Decrease of leukocyte number (PAF-induced leukopenia; 0.05 mg/kg IV, 5 mn): 21.6 +/- 3.42% | Percentage Variation (leukopenia) (PAF-induced leukopenia; 0.05 mg/kg IV, 5 mn): -26.0% | Percentage Decrease of leukocyte number (PAF-induced leukopenia; 0.05 mg/kg IV, 10 mn): 14.2 +/- 17.30% | Percentage Variation (leukopenia) (PAF-induced leukopenia; 0.05 mg/kg IV, 10 mn): -57.6% | Percentage Decrease of leukocyte number (PAF-induced leukopenia; 0.1 mg/kg IV, 1 mn): 41.8 +/- 6.50% | Percentage Variation (leukopenia) (PAF-induced leukopenia; 0.1 mg/kg IV, 1 mn): +2.5% | Percentage Decrease of leukocyte number (PAF-induced leukopenia; 0.1 mg/kg IV, 5 mn): 31.9 +/- 4.88% | Percentage Variation (leukopenia) (PAF-induced leukopenia; 0.1 mg/kg IV, 5 mn): -9.2% | Percentage Decrease of leukocyte number (PAF-induced leukopenia; 0.1 mg/kg IV, 10 mn): 33.5 +/- 4.65% | Percentage Variation (leukopenia) (PAF-induced leukopenia; 0.1 mg/kg IV, 10 mn): 0.0% | Percentage Decrease of leukocyte number (PAF-induced leukopenia; 0.5 mg/kg IV, 1 mn): 34.6 +/- 6.35% | Percentage Variation (leukopenia) (PAF-induced leukopenia; 0.5 mg/kg IV, 1 mn): -15.2% | Percentage Decrease of leukocyte number (PAF-induced leukopenia; 0.5 mg/kg IV, 5 mn): 19.0 +/- 6.42% | Percentage Variation (leukopenia) (PAF-induced leukopenia; 0.5 mg/kg IV, 5 mn): -34.9% | Percentage Decrease of leukocyte number (PAF-induced leukopenia; 0.5 mg/kg IV, 10 mn): 14.6 +/- 5.36% | Percentage Decrease of leukocyte number (PAF-induced leukopenia; 1 mg/kg IV, 1 mn): 3.5 +/- 12.60% | Percentage Variation (leukopenia) (PAF-induced leukopenia; 1 mg/kg IV, 1 mn): -91.4% | Percentage Decrease of leukocyte number (PAF-induced leukopenia; 1 mg/kg IV, 5 mn): 2.9 +/- 10.51% | Percentage Variation (leukopenia) (PAF-induced leukopenia; 1 mg/kg IV, 5 mn): -90.1% | Percentage Decrease of leukocyte number (PAF-induced leukopenia; 1 mg/kg IV, 10 mn): 1.0 +/- 22.62% | Percentage Variation (leukopenia) (PAF-induced leukopenia; 1 mg/kg IV, 10 mn): -97.0% | Percentage Decrease of leukocyte number (PAF-induced leukopenia; 5 mg/kg IV, 1 mn): 16.5 +/- 2.42% | Percentage Variation (leukopenia) (PAF-induced leukopenia; 5 mg/kg IV, 1 mn): -59.6% | Percentage Decrease of leukocyte number (PAF-induced leukopenia; 5 mg/kg IV, 5 mn): 15.9 +/- 0.99% | Percentage Variation (leukopenia) (PAF-induced leukopenia; 5 mg/kg IV, 5 mn): -45.5% | Percentage Decrease of leukocyte number (PAF-induced leukopenia; 5 mg/kg IV, 10 mn): 18.7 +/- 5.08% | Percentage Variation (leukopenia) (PAF-induced leukopenia; 5 mg/kg IV, 10 mn): -44.2% | IC50 ([4]; Leukocyte): 500 nM | inhibition of PMN aggregation (in words) [4]: dose-dependently inhibit
